Measured values from patent US20250326749A1, “COMPOUNDS, COMPOSITIONS, AND METHODS OF USING THEREOF” (Sionna Therapeutics Inc., priority 2022, published 2025).

molecular target: T1, ΔF508-CFTR (Homo sapiens, UniProt P13569, DEL508-508); assay: ΔF508-CFTR-HRP trafficking assay (cell surface expression of ΔF508-CFTR); format: cell-based; conditions: CFSMEo- cells transiently transfected with ΔF508-CFTR-HRP; test agent 3 μM, 48 h; HRP chemiluminescence
T1 construct: expressed in transfected cells; host or cells: CFSMEo- (human CF submucosal gland epithelial cells, ΔF508/Q2X), transiently transfected by nucleofection
Text: Test agents were screened for their effect on cell surface expression of ΔF508-CFTR using the ΔF508-CFTR-HRP trafficking assay. For this assay, a ΔF508-CFTR expression construct was designed with an in-frame insertion of a horseradish peroxidase (HRP) tag into the 4th extracellular loop of CFTR. The HRP tag would be presented extracellularly, in cells transiently transfected with the ΔF508-CFTR-HRP construct, following correction of the ΔF508-CFTR trafficking defect. The quantity of ΔF508-CFTR-HRP expressed on the plasma membrane could therefore be determined by measuring an HRP-dependent signal after the application of a cell-impermeable HRP substrate.
In brief, CF submucosal gland epithelial cells (CFSMEo-), derived from the airways of a CF patient (ΔF508/Q2X) and provided by Dr. Dieter Gruenert, University of California-San Francisco, were cultured at 37° C. with 5% CO2 in minimum essential medium (MEM) with Earle's salt and nonessential amino acids, supplemented with 10% (volume per volume [v/v]) fetal bovine serum, 2 mM L-glutamine and 1× (v/v) penicillin/streptomycin and grown in tissue culture-treated flasks coated with an extracellular matrix (ECM) cocktail consisting of 10 μg/mL human fibronectin, 30 μg/mL bovine collagen type I, and 100 μg/mL bovine serum albumin in LHC basal medium. These CFSMEo^− cells were transiently transfected with 4 μg of the ΔF508-CFTR-HRP expression construct using the Lonza 4D-Nucleofector Core unit (Lonza, Catalogue No. AAF-1002B) with the X unit (Lonza, Catalogue No. AAF-1002X) and SF Cell Line 4D-Nucleofector X Kit L (Lonza, Catalogue No. V4XC-2024) according to the manufacturer's instructions and plated at 1.2×10^4 cells/well onto collagen-coated, 96-well plates (Corning Inc.). Twenty-four h post-transfection, cells were treated with test agents, solubilized in DMSO at a concentration of 3 μM in replicates of 3, and allowed to incubate for 48 h. To detect HRP expression, cell culture media was removed, cells were washed with PBS and 100 μL of Luminata Forte HRP chemiluminescent substrate (EMD Millipore, Burlington, MA) was added to each well. Following a 5-minute incubation, chemiluminescence was measured in relative luminescent units (RLUs) using an EnVision plate reader (Perkin Elmer, Waltham, MA).
The ΔF508-CFTR-HRP trafficking data was normalized to the vehicle treated control (0.3% DMSO), followed by calculation of the mean, standard deviation, and standard error. If the test agent increased cell surface expression of ΔF508-CFTR-HRP relative to the vehicle-treated control, then that test agent was considered a ΔF508-CFTR corrector. Based on the description above, the biological activity of the examples in this disclosure is collected in Table 2.

T1 sequence (P13569 with tags, fused parts or gaps DEL508-508): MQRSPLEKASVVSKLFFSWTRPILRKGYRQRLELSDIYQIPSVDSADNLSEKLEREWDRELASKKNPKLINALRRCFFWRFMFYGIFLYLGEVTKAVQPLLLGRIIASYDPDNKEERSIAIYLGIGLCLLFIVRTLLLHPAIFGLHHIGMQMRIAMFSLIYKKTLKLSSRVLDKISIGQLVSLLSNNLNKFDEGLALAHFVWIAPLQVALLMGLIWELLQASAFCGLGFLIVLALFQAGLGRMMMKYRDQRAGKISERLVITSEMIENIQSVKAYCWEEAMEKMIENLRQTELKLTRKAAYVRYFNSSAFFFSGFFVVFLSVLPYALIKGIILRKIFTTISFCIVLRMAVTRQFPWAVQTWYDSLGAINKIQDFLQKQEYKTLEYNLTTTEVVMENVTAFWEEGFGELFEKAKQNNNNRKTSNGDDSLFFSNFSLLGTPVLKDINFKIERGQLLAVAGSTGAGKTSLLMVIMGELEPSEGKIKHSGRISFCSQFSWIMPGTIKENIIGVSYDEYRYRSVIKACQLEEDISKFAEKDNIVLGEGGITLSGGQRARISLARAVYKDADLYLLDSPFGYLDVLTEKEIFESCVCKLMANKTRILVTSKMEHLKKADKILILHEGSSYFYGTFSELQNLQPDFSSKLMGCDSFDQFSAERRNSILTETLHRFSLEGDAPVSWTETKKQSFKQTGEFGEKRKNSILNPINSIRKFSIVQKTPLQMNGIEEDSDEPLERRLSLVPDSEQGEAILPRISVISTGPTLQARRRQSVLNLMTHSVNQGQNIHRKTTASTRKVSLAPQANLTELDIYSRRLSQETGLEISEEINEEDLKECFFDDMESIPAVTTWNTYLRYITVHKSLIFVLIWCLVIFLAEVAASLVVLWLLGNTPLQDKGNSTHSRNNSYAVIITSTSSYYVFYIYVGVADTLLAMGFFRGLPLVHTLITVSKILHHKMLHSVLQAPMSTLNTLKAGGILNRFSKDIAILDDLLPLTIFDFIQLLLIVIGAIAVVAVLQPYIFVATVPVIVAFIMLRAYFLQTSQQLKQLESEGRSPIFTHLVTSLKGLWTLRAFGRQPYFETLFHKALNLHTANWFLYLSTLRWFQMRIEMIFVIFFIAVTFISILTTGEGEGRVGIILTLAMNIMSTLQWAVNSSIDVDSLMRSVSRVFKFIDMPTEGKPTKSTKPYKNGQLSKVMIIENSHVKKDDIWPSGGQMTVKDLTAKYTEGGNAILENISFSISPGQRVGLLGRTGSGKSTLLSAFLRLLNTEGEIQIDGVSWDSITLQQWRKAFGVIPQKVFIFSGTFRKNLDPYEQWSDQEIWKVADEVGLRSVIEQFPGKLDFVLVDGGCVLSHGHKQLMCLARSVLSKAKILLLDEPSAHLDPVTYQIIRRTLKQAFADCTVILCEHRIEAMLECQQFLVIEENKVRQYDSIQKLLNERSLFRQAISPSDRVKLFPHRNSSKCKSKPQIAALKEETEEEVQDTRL

Row | Structure (SMILES) | RLUs: ΔF508-CFTR-HRP trafficking data normalized to the vehicle treated control (0.3% DMSO)
1 | C[C@H](Oc1cccc(-n2nc(C(F)(F)F)c3c2C(O[C@H]2CC[C@H](C(=O)O)CC2)CCC3)c1)c1ccc2c(c1)OC(F)(F)O2 (relative stereo) [Example 37] | A (RLU 5.0 μM-10 μM)
2 | C[C@H](Oc1cncc(-n2nc(C(F)(F)F)c3c2[C@@H](OC24CC(C(=O)O)(C2)C4)CCC3)c1)c1cc2c(cc1F)OC(F)(F)O2 (single isomer, unassigned) [74 (P1)] | A (RLU 5.0 μM-10 μM)
3 | C[C@H](Oc1cncc(-n2nc(C(F)(F)F)c3c2[C@H](OC24CC(C(=O)O)(C2)C4)CCC3)c1)c1cc2c(cc1F)OC(F)(F)O2 (single isomer, unassigned) [74 (P2)] | A (RLU 5.0 μM-10 μM)
4 | C[C@H](Oc1cc(-n2nc(C(F)(F)F)c3c2[C@@H](OC24CC(C(=O)O)(C2)C4)CCC3)cnc1F)c1cc2c(cc1F)OC(F)(F)O2 (single isomer, unassigned) [75 (P1)] | C (RLU 0.0 μM-3.5 μM)
5 | C[C@H](Oc1cc(-n2nc(C(F)(F)F)c3c2[C@H](OC24CC(C(=O)O)(C2)C4)CCC3)cnc1F)c1cc2c(cc1F)OC(F)(F)O2 (single isomer, unassigned) [75 (P2)] | C (RLU 0.0 μM-3.5 μM)
6 | C[C@H](Oc1cc(-n2nc(C(F)(F)F)c3c2[C@@H](O[C@H]2CC[C@H](C(=O)O)CC2)CCC3)cnc1F)c1ccc2c(c1)OC(F)(F)O2 (single isomer, unassigned) [79 (P1)] | B (RLU 3.5 μM-5.0 μM)
7 | C[C@H](Oc1cc(-n2nc(C(F)(F)F)c3c2[C@@H](O[C@H]2CC[C@H](C(=O)O)CC2)CCC3)cc(F)n1)c1ccc2c(c1)OC(F)(F)O2 (single isomer, unassigned) [80 (P1)] | A (RLU 5.0 μM-10 μM)
8 | C[C@H](Oc1cc(-n2nc(C(F)(F)F)c3c2[C@@H](OC[C@H]2CC[C@H](C(=O)O)CC2)CCC3)cnc1F)c1ccc2c(c1)OC(F)(F)O2 (single isomer, unassigned) [82 (P1)] | B (RLU 3.5 μM-5.0 μM)
9 | C[C@H](Oc1cc(-n2nc(C(F)(F)F)c3c2[C@H](OC[C@H]2CC[C@H](C(=O)O)CC2)CCC3)cnc1F)c1ccc2c(c1)OC(F)(F)O2 (single isomer, unassigned) [82 (P2)] | A (RLU 5.0 μM-10 μM)
10 | C[C@H](Oc1cccc(-n2nc(C(F)(F)F)c3c2[C@@H](O[C@H]2C[C@H](C(=O)O)C2)CCC3)n1)c1cc2c(cc1F)OC(F)(F)O2 (single isomer, unassigned) [83 (P1)] | B (RLU 3.5 μM-5.0 μM)
11 | C[C@H](Oc1cccc(-n2nc(C(F)(F)F)c3c2[C@H](O[C@H]2C[C@H](C(=O)O)C2)CCC3)n1)c1cc2c(cc1F)OC(F)(F)O2 (single isomer, unassigned) [83 (P2)] | C (RLU 0.0 μM-3.5 μM)
12 | C[C@H](Oc1nc(-n2nc(C(F)(F)F)c3c2[C@@H](O[C@H]2C[C@H](C(=O)O)C2)CCC3)ccc1F)c1cc2c(cc1F)OC(F)(F)O2 (single isomer, unassigned) [84 (P1)] | B (RLU 3.5 μM-5.0 μM)
13 | C[C@H](Oc1nc(-n2nc(C(F)(F)F)c3c2[C@H](O[C@H]2C[C@H](C(=O)O)C2)CCC3)ccc1F)c1cc2c(cc1F)OC(F)(F)O2 (single isomer, unassigned) [84 (P2)] | C (RLU 0.0 μM-3.5 μM)
14 | C[C@H](Oc1cc(-n2nc(C(F)(F)F)c3c2[C@@H](OC24CC(c5nc(=O)o[nH]5)(C2)C4)CCC3)ccc1F)c1ccc2c(c1)OC(F)(F)O2 (single isomer, unassigned) [85 (P1)] | C (RLU 0.0 μM-3.5 μM)
15 | C[C@H](Oc1cc(-n2nc(C(F)(F)F)c3c2[C@H](OC24CC(c5nc(=O)o[nH]5)(C2)C4)CCC3)ccc1F)c1ccc2c(c1)OC(F)(F)O2 (single isomer, unassigned) [85 (P2)] | B (RLU 3.5 μM-5.0 μM)
16 | C[C@H](Oc1cc(-n2nc(C(F)(F)F)c3c2[C@@H](OC24CC(c5nc(=O)o[nH]5)(C2)C4)CCC3)ccc1F)c1cc2c(cc1F)OC(F)(F)O2 (single isomer, unassigned) [86 (P1)] | C (RLU 0.0 μM-3.5 μM)
17 | C[C@H](Oc1cc(-n2nc(C(F)(F)F)c3c2[C@H](OC24CC(c5nc(=O)o[nH]5)(C2)C4)CCC3)ccc1F)c1cc2c(cc1F)OC(F)(F)O2 (single isomer, unassigned) [86 (P2)] | C (RLU 0.0 μM-3.5 μM)
18 | C[C@H](Nc1cc(-n2nc(C(F)(F)F)c3c2[C@@H](NC24CC(C(=O)O)(C2)C4)CCC3)ccc1F)c1ccc2c(c1)OC(F)(F)O2 (single isomer, unassigned) [94 (P1)] | C (RLU 0.0 μM-3.5 μM)
19 | C[C@H](Nc1cc(-n2nc(C(F)(F)F)c3c2[C@H](NC24CC(C(=O)O)(C2)C4)CCC3)ccc1F)c1ccc2c(c1)OC(F)(F)O2 (single isomer, unassigned) [94 (P2)] | C (RLU 0.0 μM-3.5 μM)
20 | C[C@H](Nc1cc(-n2nc(C(F)(F)F)c3c2[C@@H](OC24CC(C(=O)O)(C2)C4)CCC3)ccc1F)c1cc2c(cc1F)OC(F)(F)O2 (single isomer, unassigned) [96 (P1)] | B (RLU 3.5 μM-5.0 μM)

Further lines, results first:

Row | RLUs: ΔF508-CFTR-HRP trafficking data normalized to the vehicle treated control (0.3% DMSO) | Structure (SMILES)
21 | C (RLU 0.0 μM-3.5 μM) | C[C@H](Oc1cc(-n2nc(C(F)(F)F)c3c2[C@@H](OC24CC(C(=O)O)(C2)C4)CCC3)ccc1F)c1ccc2c(c1)OC(F)(F)O2 (single isomer, unassigned) [76 (P1)]
22 | C (RLU 0.0 μM-3.5 μM) | C[C@H](Oc1cc(-n2nc(C(F)(F)F)c3c2[C@H](OC24CC(C(=O)O)(C2)C4)CCC3)ccc1F)c1ccc2c(c1)OC(F)(F)O2 (single isomer, unassigned) [76 (P2)]
23 | B (RLU 3.5 μM-5.0 μM) | C[C@H](Oc1cccc(-n2nc(C(F)(F)F)c3c2[C@@H](OC24CC(C(=O)O)(C2)C4)CCC3)n1)c1ccc2c(c1)OC(F)(F)O2 (single isomer, unassigned) [77 (P1)]
24 | B (RLU 3.5 μM-5.0 μM) | C[C@H](Oc1cccc(-n2nc(C(F)(F)F)c3c2[C@H](OC24CC(C(=O)O)(C2)C4)CCC3)n1)c1ccc2c(c1)OC(F)(F)O2 (single isomer, unassigned) [77 (P2)]
25 | C (RLU 0.0 μM-3.5 μM) | C[C@H](Oc1cc(-n2nc(C(F)(F)F)c3c2[C@@H](OC24CC(CC(=O)O)(C2)C4)CCC3)ccc1F)c1ccc2c(c1)OC(F)(F)O2 (single isomer, unassigned) [78 (P1)]
26 | C (RLU 0.0 μM-3.5 μM) | C[C@H](Oc1cc(-n2nc(C(F)(F)F)c3c2[C@H](OC24CC(CC(=O)O)(C2)C4)CCC3)ccc1F)c1ccc2c(c1)OC(F)(F)O2 (single isomer, unassigned) [78 (P2)]
27 | A (RLU 5.0 μM-10 μM) | C[C@H](Oc1cc(-n2nc(C(F)(F)F)c3c2[C@H](OC24CCC(C(=O)O)(CC2)CC4)CCC3)cc(F)n1)c1ccc2c(c1)OC(F)(F)O2 (single isomer, unassigned) [81 (P1)]
28 | C (RLU 0.0 μM-3.5 μM) | C[C@H](Oc1cc(-n2nc(C(F)(F)F)c3c2[C@@H](OC24CCC(C(=O)O)(CC2)CC4)CCC3)cc(F)n1)c1ccc2c(c1)OC(F)(F)O2 (single isomer, unassigned) [81 (P2)]
29 | C (RLU 0.0 μM-3.5 μM) | C[C@H](Nc1cc(-n2nc(C(F)(F)F)c3c2[C@H](OC24CC(C(=O)O)(C2)C4)CCC3)ccc1F)c1ccc2c(c1)OC(F)(F)O2 (single isomer, unassigned) [95 (P2)]
